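A five-concentration, 48-hour dose response in 96-well plates underlies each endpoint, interpolated linearly between surrounding concentrations. The concentration for full growth arrest is given as TGI.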
Experiments:
Assay in all cases: DTP human tumour cell line panel, 48 h
NCI-H23 lung = test system: NCI-H23 lung
RPMI-8226 leukemia = test system: RPMI-8226 leukemia
MOLT-4 leukemia = test system: MOLT-4 leukemia
DU-145 prostate = test system: DU-145 prostate
SN12C renal = test system: SN12C renal
UACC-257 melanoma = test system: UACC-257 melanoma
CCRF-CEM leukemia = test system: CCRF-CEM leukemia
LOX IMVI melanoma = test system: LOX IMVI melanoma
SK-OV-3 ovarian = test system: SK-OV-3 ovarian
SNB-19 CNS = test system: SNB-19 CNS
SK-MEL-28 melanoma = test system: SK-MEL-28 melanoma
MALME-3M melanoma = test system: MALME-3M melanoma
HOP-62 NSCLC = test system: HOP-62 NSCLC
NCI-H522 lung = test system: NCI-H522 lung
SF-295 CNS = test system: SF-295 CNS
A498 renal = test system: A498 renal
786-0 renal = test system: 786-0 renal
OVCAR-3 ovarian = test system: OVCAR-3 ovarian
HCC-2998 colon = test system: HCC-2998 colon
SR leukemia = test system: SR leukemia

In the case of COn1oc(=O)c2ccccc21, the TGI (NCI-H23 lung) is reported as > 100 µM, the TGI (RPMI-8226 leukemia) is reported as > 100 µM and the TGI (MOLT-4 leukemia) is reported as > 100 µM. The TGI (DU-145 prostate) was > 100 µM, the TGI (SN12C renal) was > 100 µM and the TGI (UACC-257 melanoma) was > 100 µM. For the same molecule, the TGI (CCRF-CEM leukemia) was > 100 µM, the TGI (LOX IMVI melanoma) was > 100 µM and the TGI (SK-OV-3 ovarian) was > 100 µM. The TGI (SNB-19 CNS) was > 100 µM, the TGI (SK-MEL-28 melanoma) was > 100 µM and the TGI (MALME-3M melanoma) was > 100 µM. For the same molecule, the TGI (HOP-62 NSCLC) was > 100 µM, the TGI (NCI-H522 lung) was > 100 µM and the TGI (SF-295 CNS) was > 100 µM. For the same molecule, the TGI (A498 renal) was > 100 µM, the TGI (786-0 renal) was > 100 µM and the TGI (OVCAR-3 ovarian) was > 100 µM. The TGI (HCC-2998 colon) was > 100 µM.
For Cc1ccc2nc(CN(CCO)CCO)cc(=O)n2c1, the TGI (NCI-H23 lung) was > 100 µM, the TGI (SR leukemia) was > 100 µM and the TGI (MOLT-4 leukemia) was > 100 µM. The TGI (DU-145 prostate) was > 100 µM, the TGI (SN12C renal) was > 100 µM and the TGI (UACC-257 melanoma) was > 100 µM. The TGI (CCRF-CEM leukemia) was > 100 µM, the TGI (LOX IMVI melanoma) was > 100 µM and the TGI (SK-OV-3 ovarian) was > 100 µM. The TGI (SNB-19 CNS) was > 100 µM, the TGI (SK-MEL-28 melanoma) was > 100 µM and the TGI (MALME-3M melanoma) was > 100 µM. The TGI (HOP-62 NSCLC) was > 100 µM, the TGI (NCI-H522 lung) was > 100 µM and the TGI (SF-295 CNS) was > 100 µM. For the same molecule, the TGI (786-0 renal) was > 100 µM, the TGI (OVCAR-3 ovarian) was > 100 µM and the TGI (HCC-2998 colon) was > 100 µM.
With COc1ccccc1/C=N/Nc1nnc2c3ccccc3c3ncccc3c2n1 the TGI (NCI-H23 lung) was > 100 µM, the TGI (SR leukemia) was > 100 µM and the TGI (RPMI-8226 leukemia) was > 100 µM. For the same molecule, the TGI (MOLT-4 leukemia) was > 100 µM, the TGI (DU-145 prostate) was > 100 µM and the TGI (SN12C renal) was > 100 µM. The TGI (UACC-257 melanoma) was > 100 µM, the TGI (CCRF-CEM leukemia) was 78 µM and the TGI (LOX IMVI melanoma) was > 100 µM. The TGI (SK-OV-3 ovarian) was > 100 µM, the TGI (SNB-19 CNS) was > 100 µM and the TGI (SK-MEL-28 melanoma) was > 100 µM. The TGI (MALME-3M melanoma) was > 100 µM, the TGI (HOP-62 NSCLC) was 49.2 µM and the TGI (NCI-H522 lung) was > 100 µM. The TGI (SF-295 CNS) was 31.8 µM, the TGI (786-0 renal) was 90.6 µM and the TGI (OVCAR-3 ovarian) was > 100 µM. The TGI (HCC-2998 colon) was > 100 µM.
In the case of O=C(O)c1ccccc1/C=C1/Cc2ccc3c(c2C1=O)CCC3, the TGI (NCI-H23 lung) is reported as 96 µM, the TGI (SR leukemia) is reported as 91.3 µM and the TGI (RPMI-8226 leukemia) is reported as 57.4 µM. The TGI (MOLT-4 leukemia) was > 100 µM, the TGI (DU-145 prostate) was > 100 µM and the TGI (SN12C renal) was > 100 µM. For the same molecule, the TGI (UACC-257 melanoma) was > 100 µM, the TGI (CCRF-CEM leukemia) was > 100 µM and the TGI (LOX IMVI melanoma) was 39.5 µM. For the same molecule, the TGI (SNB-19 CNS) was > 100 µM, the TGI (SK-MEL-28 melanoma) was > 100 µM and the TGI (MALME-3M melanoma) was > 100 µM. The TGI (HOP-62 NSCLC) was > 100 µM, the TGI (NCI-H522 lung) was > 100 µM and the TGI (SF-295 CNS) was > 100 µM. For the same molecule, the TGI (A498 renal) was > 100 µM, the TGI (786-0 renal) was > 100 µM and the TGI (OVCAR-3 ovarian) was 95.2 µM. The TGI (HCC-2998 colon) was 72.1 µM.
OCC(O)COCn1cc(Cn2ncc3c(NCc4ccccc4)ncnc32)nn1 (configuration not stated) was tested, and the TGI (NCI-H23 lung) was > 100 µM, the TGI (SR leukemia) was > 100 µM and the TGI (RPMI-8226 leukemia) was > 100 µM. The TGI (MOLT-4 leukemia) was > 100 µM, the TGI (DU-145 prostate) was > 100 µM and the TGI (SN12C renal) was > 100 µM. The TGI (UACC-257 melanoma) was > 100 µM, the TGI (CCRF-CEM leukemia) was > 100 µM and the TGI (LOX IMVI melanoma) was > 100 µM. The TGI (SK-OV-3 ovarian) was > 100 µM, the TGI (SNB-19 CNS) was > 100 µM and the TGI (SK-MEL-28 melanoma) was > 100 µM. For the same molecule, the TGI (HOP-62 NSCLC) was > 100 µM, the TGI (NCI-H522 lung) was 33.4 µM and the TGI (SF-295 CNS) was > 100 µM. The TGI (A498 renal) was > 100 µM, the TGI (786-0 renal) was > 100 µM and the TGI (OVCAR-3 ovarian) was > 100 µM. For the same molecule, the TGI (HCC-2998 colon) was > 100 µM.
In the case of COc1cc(NC(C)=O)ccc1C(=O)N/N=C/c1ccco1, the TGI (NCI-H23 lung) is reported as > 100 µM, the TGI (SR leukemia) is reported as > 100 µM and the TGI (RPMI-8226 leukemia) is reported as > 100 µM. The TGI (MOLT-4 leukemia) was > 100 µM, the TGI (DU-145 prostate) was > 100 µM and the TGI (SN12C renal) was > 100 µM. The TGI (CCRF-CEM leukemia) was > 100 µM, the TGI (LOX IMVI melanoma) was > 100 µM and the TGI (SK-OV-3 ovarian) was > 100 µM. The TGI (SNB-19 CNS) was > 100 µM, the TGI (SK-MEL-28 melanoma) was > 100 µM and the TGI (MALME-3M melanoma) was > 100 µM. The TGI (HOP-62 NSCLC) was > 100 µM, the TGI (NCI-H522 lung) was > 100 µM and the TGI (SF-295 CNS) was > 100 µM. For the same molecule, the TGI (A498 renal) was > 100 µM, the TGI (786-0 renal) was > 100 µM and the TGI (OVCAR-3 ovarian) was > 100 µM.
COc1ccc(N/N=C/C2=CC(C)(C)C(C#N)(C#N)C(O)=C2C#N)cc1 was tested, and the TGI (NCI-H23 lung) was > 100 µM, the TGI (SR leukemia) was 82.3 µM and the TGI (RPMI-8226 leukemia) was > 100 µM. The TGI (MOLT-4 leukemia) was > 100 µM, the TGI (DU-145 prostate) was > 100 µM and the TGI (SN12C renal) was > 100 µM. For the same molecule, the TGI (UACC-257 melanoma) was > 100 µM, the TGI (CCRF-CEM leukemia) was > 100 µM and the TGI (LOX IMVI melanoma) was > 100 µM. For the same molecule, the TGI (SNB-19 CNS) was > 100 µM, the TGI (SK-MEL-28 melanoma) was > 100 µM and the TGI (MALME-3M melanoma) was > 100 µM. The TGI (HOP-62 NSCLC) was > 100 µM, the TGI (NCI-H522 lung) was > 100 µM and the TGI (SF-295 CNS) was > 100 µM. The TGI (A498 renal) was 81 µM, the TGI (786-0 renal) was > 100 µM and the TGI (OVCAR-3 ovarian) was > 100 µM.
In the case of O=C1c2cn[nH]c2N=C(Nc2ccccc2)C1N=Cc1ccc([N+](=O)[O-])cc1 (configuration not stated), the TGI (NCI-H23 lung) is reported as > 10 µM, the TGI (SR leukemia) is reported as > 10 µM and the TGI (MOLT-4 leukemia) is reported as > 10 µM. The TGI (DU-145 prostate) was > 10 µM, the TGI (SN12C renal) was > 10 µM and the TGI (UACC-257 melanoma) was > 10 µM. The TGI (CCRF-CEM leukemia) was > 10 µM, the TGI (LOX IMVI melanoma) was > 10 µM and the TGI (SNB-19 CNS) was > 10 µM. The TGI (MALME-3M melanoma) was > 10 µM, the TGI (NCI-H522 lung) was > 10 µM and the TGI (SF-295 CNS) was > 10 µM. The TGI (786-0 renal) was > 10 µM, the TGI (OVCAR-3 ovarian) was > 10 µM and the TGI (HCC-2998 colon) was > 10 µM.
With CN(C)/C=C/c1c2c(nc3ccccc13)C(=O)c1cccnc1C2=O the TGI (NCI-H23 lung) was 0.42 µM, the TGI (SR leukemia) was 0.907 µM and the TGI (RPMI-8226 leukemia) was 6.27 µM. The TGI (MOLT-4 leukemia) was 6.98 µM, the TGI (DU-145 prostate) was 1.47 µM and the TGI (SN12C renal) was 2.57 µM. The TGI (UACC-257 melanoma) was 1.8 µM, the TGI (CCRF-CEM leukemia) was 9.28 µM and the TGI (SK-OV-3 ovarian) was 1.16 µM. For the same molecule, the TGI (SNB-19 CNS) was 1.95 µM, the TGI (SK-MEL-28 melanoma) was 1.84 µM and the TGI (MALME-3M melanoma) was 2.26 µM. It also gave a TGI (HOP-62 NSCLC) of 0.435 µM, a TGI (NCI-H522 lung) of 1.13 µM and a TGI (SF-295 CNS) of 1.62 µM. For the same molecule, the TGI (A498 renal) was 2.31 µM, the TGI (786-0 renal) was 1.33 µM and the TGI (OVCAR-3 ovarian) was 1.09 µM. For the same molecule, the TGI (HCC-2998 colon) was 2.6 µM.
CC(ON1[C@](C)(c2ccccc2)CC[C@@]1(C)c1ccccc1)c1ccccc1 (some centres not stated) was tested, and the TGI (NCI-H23 lung) was > 100 µM, the TGI (RPMI-8226 leukemia) was 58.2 µM and the TGI (MOLT-4 leukemia) was 46.1 µM. The TGI (DU-145 prostate) was > 100 µM, the TGI (SN12C renal) was > 100 µM and the TGI (UACC-257 melanoma) was > 100 µM. The TGI (CCRF-CEM leukemia) was 52.5 µM, the TGI (LOX IMVI melanoma) was > 100 µM and the TGI (SK-OV-3 ovarian) was > 100 µM. The TGI (SNB-19 CNS) was 93 µM, the TGI (SK-MEL-28 melanoma) was > 100 µM and the TGI (MALME-3M melanoma) was > 100 µM. For the same molecule, the TGI (HOP-62 NSCLC) was > 100 µM, the TGI (NCI-H522 lung) was 50.3 µM and the TGI (SF-295 CNS) was > 100 µM. For the same molecule, the TGI (786-0 renal) was > 100 µM, the TGI (OVCAR-3 ovarian) was > 100 µM and the TGI (HCC-2998 colon) was 52.6 µM.

— PubChem BioAssay (NCI)
